ChEMBL document CHEMBL1201862, “PubChem BioAssay data set” (2004)
The source made the active and inactive calls. Rule as the data show it, for most assays here: actives have a measured IC50 and inactives only a lower limit.

Tests used:
[1] = target: Heat shock cognate 71 kDa protein (Homo sapiens, UniProt P11142); assay: In Vitro Hsc70 Dose Response Fluorescence Polarization Assay. [Related pubchem assays: 1072 ]
[2] = target: T1, Dual specificity protein phosphatase 6 (Rattus norvegicus, UniProt Q64346);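 also: in vitro confirmatory secondary MKP-3 assay designed to detect irreversible or slow-binding inhibitors; recombinant His-tagged rat MKP-3 acting on the substrate OMFP; inhibitor potency from reduced phosphatase rate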
T1 sequence (Q64346 whole entry): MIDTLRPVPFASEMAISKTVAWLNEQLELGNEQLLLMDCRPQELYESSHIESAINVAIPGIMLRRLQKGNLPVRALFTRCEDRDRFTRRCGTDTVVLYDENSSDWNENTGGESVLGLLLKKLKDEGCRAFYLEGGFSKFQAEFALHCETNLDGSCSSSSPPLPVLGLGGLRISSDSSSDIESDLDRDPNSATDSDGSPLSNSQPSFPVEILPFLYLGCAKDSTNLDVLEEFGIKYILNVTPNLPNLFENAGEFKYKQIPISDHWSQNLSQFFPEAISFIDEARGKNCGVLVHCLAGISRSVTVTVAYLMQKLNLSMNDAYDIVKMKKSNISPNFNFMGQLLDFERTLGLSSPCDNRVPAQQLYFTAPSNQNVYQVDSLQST

[3] = target: T2, Tyrosine-protein phosphatase non-receptor type 7 (Homo sapiens, UniProt P35236); assay: redox-dependent HePTP inhibition, mechanism study, biochemical, fluorescence (AID 2068); type: functional
T2 sequence (P35236 whole entry): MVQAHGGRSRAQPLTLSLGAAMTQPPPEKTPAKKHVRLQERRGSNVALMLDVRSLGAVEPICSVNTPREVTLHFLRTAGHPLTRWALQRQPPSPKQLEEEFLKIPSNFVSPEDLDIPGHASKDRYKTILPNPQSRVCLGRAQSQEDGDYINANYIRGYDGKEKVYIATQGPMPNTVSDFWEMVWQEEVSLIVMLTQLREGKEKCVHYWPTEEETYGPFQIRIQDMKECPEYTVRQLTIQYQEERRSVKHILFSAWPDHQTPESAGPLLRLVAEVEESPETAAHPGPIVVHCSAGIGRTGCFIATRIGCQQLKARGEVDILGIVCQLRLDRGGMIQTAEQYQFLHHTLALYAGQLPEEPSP

[4] = target: Dual specificity protein phosphatase 3 (Homo sapiens, UniProt P51452); assay: SAR VHR1 Fluorescent Assay for In Vitro dose response studies. [Related pubchem assays (depositor defined):AID1654, AID1661, AID1878, AID1992, AID2004, AID2070, AID2085]; type: functional
[5] = target: T2, Tyrosine-protein phosphatase non-receptor type 7; type: functional
[6] = target: Heat shock 70 kDa protein 1A (Homo sapiens, UniProt P0DMV8); assay: Hsp70 inhibitors, SAR follow-up, biochemical, fluorescence polarization (AID 1072)
[7] = target: Glyceraldehyde-3-phosphate dehydrogenase (Homo sapiens, UniProt P04406)
[8] = target: Hexokinase (Trypanosoma brucei, UniProt Q38C41); assay: Confirmation assay for inhibitors of Trypanosoma brucei hexokinase 1-Analogue-first series. [Related pubchem assays (depositor defined):AID1430, AID1632, AID2516, AID2560, AID2579, AID2600, AID449725, AID492951]; type: functional
[9] = target: Coagulation factor XII (Homo sapiens, UniProt P00748); assay: FXIIa inhibitor potency, concentration-response, biochemical (AID 716); type: functional
[10] = cells; type: functional, cell-based
[11] = cells; type: functional, cell-based; remark: listed apart in the source
[12] = target: T3, Trace amine-associated receptor 1 (Homo sapiens, UniProt Q96RJ0); assay: Counterscreen for agonists of the human trace amine associated receptor 1 (hTAAR1): Fluorescence-based cell-based high throughput dose response assay to identify hTAAR1 agonist that also desensitize TAAR1 receptor response.; type: functional
T3 sequence (Q96RJ0 whole entry): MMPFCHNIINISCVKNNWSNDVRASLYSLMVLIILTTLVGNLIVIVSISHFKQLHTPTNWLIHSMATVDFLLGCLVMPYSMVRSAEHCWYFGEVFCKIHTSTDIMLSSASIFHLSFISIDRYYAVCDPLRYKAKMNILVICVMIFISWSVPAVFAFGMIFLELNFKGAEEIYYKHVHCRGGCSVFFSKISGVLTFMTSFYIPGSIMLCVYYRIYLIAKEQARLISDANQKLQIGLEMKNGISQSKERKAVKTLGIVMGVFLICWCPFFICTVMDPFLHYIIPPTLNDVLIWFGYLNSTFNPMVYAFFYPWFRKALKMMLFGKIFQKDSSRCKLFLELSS

[13] = target: T3, Trace amine-associated receptor 1; assay: Fluorescence-based cell-based high throughput dose response assay to identify agonists of the human trace amine associated receptor 1 (TAAR1).; type: functional

Sequence of Coagulation factor XII (P00748 20-372 limits assumed): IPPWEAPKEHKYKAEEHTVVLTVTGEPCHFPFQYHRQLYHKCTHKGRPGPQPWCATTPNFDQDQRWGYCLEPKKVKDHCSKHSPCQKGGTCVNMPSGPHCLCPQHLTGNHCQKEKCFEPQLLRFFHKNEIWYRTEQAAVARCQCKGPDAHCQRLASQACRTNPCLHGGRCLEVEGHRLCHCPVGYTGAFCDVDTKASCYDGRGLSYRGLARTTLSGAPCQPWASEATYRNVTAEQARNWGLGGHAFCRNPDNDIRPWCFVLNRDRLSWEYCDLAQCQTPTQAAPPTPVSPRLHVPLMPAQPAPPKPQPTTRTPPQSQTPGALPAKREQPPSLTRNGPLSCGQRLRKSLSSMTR
Sequence of Coagulation factor XII (P00748 373-615 limits assumed): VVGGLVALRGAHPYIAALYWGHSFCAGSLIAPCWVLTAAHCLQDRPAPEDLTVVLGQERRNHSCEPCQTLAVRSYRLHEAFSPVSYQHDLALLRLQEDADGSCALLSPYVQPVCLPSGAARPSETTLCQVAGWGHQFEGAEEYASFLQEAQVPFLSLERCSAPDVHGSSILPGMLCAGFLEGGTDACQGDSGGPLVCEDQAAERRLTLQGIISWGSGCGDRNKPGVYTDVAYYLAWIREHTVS
Sequence of Hexokinase (Q38C41 whole entry): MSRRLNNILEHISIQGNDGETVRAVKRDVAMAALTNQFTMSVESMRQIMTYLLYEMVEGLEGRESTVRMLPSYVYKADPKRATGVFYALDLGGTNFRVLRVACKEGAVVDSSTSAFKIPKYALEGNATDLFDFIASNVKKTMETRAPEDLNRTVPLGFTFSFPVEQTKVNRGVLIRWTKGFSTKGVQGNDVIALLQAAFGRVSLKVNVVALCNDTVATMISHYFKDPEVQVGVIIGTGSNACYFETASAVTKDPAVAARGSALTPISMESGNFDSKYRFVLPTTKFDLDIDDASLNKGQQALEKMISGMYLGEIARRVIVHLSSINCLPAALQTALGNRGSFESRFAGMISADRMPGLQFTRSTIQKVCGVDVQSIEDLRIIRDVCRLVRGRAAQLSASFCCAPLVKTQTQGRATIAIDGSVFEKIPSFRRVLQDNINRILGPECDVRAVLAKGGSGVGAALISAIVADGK
Sequence of Heat shock 70 kDa protein 1A (P0DMV8 whole entry): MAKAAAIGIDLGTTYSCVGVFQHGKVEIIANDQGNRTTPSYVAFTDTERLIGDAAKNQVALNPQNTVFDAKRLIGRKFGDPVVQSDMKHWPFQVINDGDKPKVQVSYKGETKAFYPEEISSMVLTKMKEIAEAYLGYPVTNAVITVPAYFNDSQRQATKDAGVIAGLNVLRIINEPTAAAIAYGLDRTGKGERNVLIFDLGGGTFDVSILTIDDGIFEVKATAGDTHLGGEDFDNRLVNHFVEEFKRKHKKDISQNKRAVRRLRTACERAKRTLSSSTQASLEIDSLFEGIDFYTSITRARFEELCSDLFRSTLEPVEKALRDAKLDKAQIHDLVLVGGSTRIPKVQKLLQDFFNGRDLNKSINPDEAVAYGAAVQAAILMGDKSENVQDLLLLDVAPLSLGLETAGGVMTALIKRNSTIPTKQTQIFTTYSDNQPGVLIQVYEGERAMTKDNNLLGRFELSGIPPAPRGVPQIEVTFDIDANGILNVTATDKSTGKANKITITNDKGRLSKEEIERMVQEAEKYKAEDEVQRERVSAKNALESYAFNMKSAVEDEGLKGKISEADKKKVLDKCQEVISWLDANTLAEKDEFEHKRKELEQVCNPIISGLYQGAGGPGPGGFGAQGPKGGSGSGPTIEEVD
Sequence of Dual specificity protein phosphatase 3 (P51452 whole entry): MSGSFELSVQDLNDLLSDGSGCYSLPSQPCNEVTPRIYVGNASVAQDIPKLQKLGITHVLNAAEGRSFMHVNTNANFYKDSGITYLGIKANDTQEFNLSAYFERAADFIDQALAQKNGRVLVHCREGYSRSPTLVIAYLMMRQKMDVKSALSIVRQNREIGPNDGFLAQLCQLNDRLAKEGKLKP
Sequence of Glyceraldehyde-3-phosphate dehydrogenase (P04406 whole entry): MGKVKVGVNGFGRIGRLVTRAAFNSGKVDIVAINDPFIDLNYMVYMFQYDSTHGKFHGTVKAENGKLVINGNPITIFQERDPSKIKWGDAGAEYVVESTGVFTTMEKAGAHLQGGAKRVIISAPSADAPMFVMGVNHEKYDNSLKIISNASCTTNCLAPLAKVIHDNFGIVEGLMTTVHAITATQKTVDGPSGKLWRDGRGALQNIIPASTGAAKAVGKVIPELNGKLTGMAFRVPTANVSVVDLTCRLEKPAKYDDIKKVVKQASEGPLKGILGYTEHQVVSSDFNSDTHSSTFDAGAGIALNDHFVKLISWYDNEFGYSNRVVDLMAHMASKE
Sequence of Heat shock cognate 71 kDa protein (P11142 whole entry): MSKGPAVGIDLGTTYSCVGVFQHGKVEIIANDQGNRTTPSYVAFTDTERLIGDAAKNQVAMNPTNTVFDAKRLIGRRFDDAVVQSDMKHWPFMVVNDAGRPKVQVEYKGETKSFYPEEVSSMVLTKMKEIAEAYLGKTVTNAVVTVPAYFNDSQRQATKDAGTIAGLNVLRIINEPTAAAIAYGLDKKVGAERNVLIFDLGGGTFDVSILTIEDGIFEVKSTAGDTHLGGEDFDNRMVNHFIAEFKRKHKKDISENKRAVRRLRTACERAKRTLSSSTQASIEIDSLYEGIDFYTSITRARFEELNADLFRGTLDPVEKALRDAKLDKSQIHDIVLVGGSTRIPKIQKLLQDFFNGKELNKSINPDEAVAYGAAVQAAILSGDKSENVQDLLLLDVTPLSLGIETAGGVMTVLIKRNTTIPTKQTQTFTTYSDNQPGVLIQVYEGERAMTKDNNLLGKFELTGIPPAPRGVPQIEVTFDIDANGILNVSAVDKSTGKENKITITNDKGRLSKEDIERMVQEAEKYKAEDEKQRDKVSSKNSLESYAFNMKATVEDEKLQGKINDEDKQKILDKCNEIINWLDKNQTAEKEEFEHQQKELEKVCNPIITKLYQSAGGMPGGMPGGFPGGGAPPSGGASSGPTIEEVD

SMILES: O=C1c2ccccc2CC1Sc1nnc(-c2ccco2)c(-c2ccco2)n1 (stereo not drawn)
- IC50 [1]: > 100 µM (not active)
- IC50 [2]: 42.1 µM (active)
- IC50 [3]: 1.12 µM (active)
- IC50 [4]: 27.9 µM (active)
- IC50 [5]: 8.11 µM (active)
- IC50 [6]: > 100 µM (not active)
- IC50 [7]: > 100 µM (not active)

SMILES: CCc1ccc(C(=O)Nc2cc(Cl)ccc2C(=O)O)cc1
- IC50 [8]: 3.04 µM (active)

SMILES: O=C(O)C1CCCCC1C(=O)NCCc1ccccc1 (stereo not drawn)
- IC50 [9]: > 50 µM (inactive)
- EC50 [10]: > 29.9 µM (inactive)
- IC50 [11]: > 29.9 µM (inactive)
- IC50 [12]: 8.04 µM (active)
- EC50 [13]: 1.42 µM (active)
